Measurements from ChEMBL document CHEMBL1777709, “Asymmetric synthesis and biological evaluations of (+)- and (-)-6-dimethoxymethyl-1,4-dihydropyridine-3-carboxylic acid derivatives blocking N-type calcium channels” (Bioorg Med Chem Lett, 2011).

Assays:
[1] = target: Voltage-gated L-type calcium channel (Rattus norvegicus, UniProt P22002+Q02485+P27732); test: Inhibition of Voltage-dependent L-type calcium channel in rat thoracic aorta ring; format: tissue-based
[2] = Inhibition of Voltage-dependent N-type calcium channel- mediated calcium influx in human IMR-32 cells; format: cell-based
[3] = tested on: Rattus norvegicus; test: Ratio of inhibition of L-type calcium channel to inhibition of N-type calcium channel in rat hypertension model at 3 ug/ml, iv; format: functional

IC50 [1]	IC50 ([2]; Homo sapiens, IMR-32)	IC50 ([2]; imr-32)	SMILES	Ratio [3]
1800 nM			COC(OC)C1=C(C(=O)OC/C=C/c2ccccc2)C(c2cccc(Cl)c2)C(C(=O)O)=C(C)N1 (stereo in doubt; (-)-3)	
	3500 nM		CC1=C(C(=O)O)C(c2cccc([N+](=O)[O-])c2)C(C(=O)OC/C=C/c2ccccc2)=C(C)N1 (racemic)	
	3000 nM		COC(OC)C1=C(C(=O)OC/C=C/c2ccccc2)C(c2cccc(Cl)c2)C(C(=O)O)=C(C)N1 (racemic)	
13200 nM		2600 nM	COC(OC)C1=C(C(=O)OC/C=C/c2ccccc2)C(c2cccc(Cl)c2)C(C(=O)O)=C(C)N1 (single isomer, unassigned; (+))	
	1600 nM		COCCOC(=O)C1=C(C)NC(C)=C(C(=O)OC/C=C/c2ccccc2)C1c1cccc([N+](=O)[O-])c1 (configuration not stated) [CILNIDIPINE]	1
